One series has as its system mEpoR. Kind of series: EPO-induced proliferation (growth inhibition) of BaF3/mEpoR cells expressing TM proteins. The series is classed as cell-based, mouse. The conditions noted are these: 0.06 U ml^−1 EPO, IL-3-free, 6-8 days; versus empty vector. As for the experimental part:
Mouse IL-3-dependent BaF3 and derivative cells were maintained in RPMI-10 medium: RPMI-1640 supplemented with 10% heat-inactivated FBS, 5% WEHI-3B cell-conditioned medium (as the source of IL-3), 4 mM L-glutamine, 0.06 mM β-mercaptoethanol and 1⨯ P-S. BaF3 cells expressing mEpoR, hEpoR and all EpoR mutants and chimeras were generated by infecting BaF3 cells with pMSCV-neo vector containing the desired HA-tagged EpoR gene. BaF3 cells (5 ⨯ 10^5) were washed with PBS and then resuspended in 500 μl of RPMI-10 medium with 4 μg ml^−1 polybrene. […]
For proliferation assays, 2 ⨯ 10^5 BaF3 and derivative cells expressing the appropriate genes were washed in PBS three times to remove IL-3. […] Viable cells were counted 6−8 days after IL-3 removal. […] The statistical significance of differences between control and experimental samples was evaluated by either one-tailed or two-tailed Student’s t-tests with unequal variance, performed using the T.TEST function in Microsoft Excel (2013).
For proliferation assays, BaF3/mEpoR/tTA cells expressing CHAMP proteins were first cultured in 10 ml of RPMI-10/IL-3 medium in the absence of Dox or supplemented with 100 or 200 pg ml^−1 Dox for 48 h. Then, 2 ⨯ 10^5 BaF3 cells were washed in PBS, resuspended in IL-3-free medium supplemented with the same concentration of Dox and 0.06 U ml^−1 human EPO, and counted as described above.

The subject of the next series is mEpoR−GFP1-10. Kind of series: Split GFP complementation with mEpoR−GFP1-10. The series is classed as cell-based, mouse. Conditions: flow cytometry, BaF3 cells. (In general: A flow cytometer gives signals particle by particle.)
Series [1] concerns the target mEpoR-TM2 (isotope-labeled mEpoR TM domain fragment) (mouse). Kind of series: SDS-PAGE; mEpoR TM peptide on SDS-PAGE, non-covalent monomer and dimer bands.
Another series deals with ErbB2−GFP1-10. Briefly: Split GFP complementation with ErbB2−GFP1-10. Format: cell-based. The conditions noted are these: flow cytometry, BaF3 (tTa) cells, 1 pM doxycycline.
In a further series the test system is mEpoR TM domain. The conditions noted are these: parallel self-interaction; ref [25]–[28]; cited from earlier work. The text has this: EpoR is a prototypical cytokine receptor whose TM domain contributes to both receptor homodimerization[25]–[27] and conformational coupling upon ligand binding[28],[29], activating the Janus kinase (JAK)−signal transducer and activator of transcription (STAT) pathway. […] In model membranes, designed TM peptides hosting SXXLXXX sequence repeats spontaneously homodimerize, strongly favoring parallel TM helix geometry like that of ...

Series [2] addresses GFP11−CHAMP-1 (Flag tag, GFP11, GGG linker, CHAMP-1). Kind of series: split reporter (BiFC, NanoBiT); split GFP complementation in BaF3 cells co-expressing a GFP1-10 fusion and a GFP11 fusion; mean fluorescence intensity by flow cytometry.

As to “MDHLGASLWPQVGSLCLLLAGAAWAPPLDPLILTLSLILVLISLLLTVLALLSHRRALKQKIWPGIPSPESEGPYSNPYENSLIPAAEPLPPSYVACS [mEpoR TM domain mimic protein, type I mEpoR TM domain mimic protein expressed in BaF3 cells]”, in the series on mEpoR, the “inhibition of EPO-induced proliferation (in words)” value is listed as “did not show inhibited proliferation”.
As for “MDHLGASLWPQVGSLCLLLAGAAWERVQLAHHFSEPEITLIIFGVMAGVIGTILLISYGIRRLIGGSGGGGSGGRDHMVLHEYVNAAGIT [glycophorin A, GlycophorinA TM domain construct fused at its c-terminus to GFP11]”, the “fluorescence in mEpoR−GFP1-10 expressing cells (in words)” value in the series with mEpoR−GFP1-10 is given as “fluorescence was not increased”.
As to “MRLPGAMPALALKGELLLLSLLLLLEPQISQGLVVTPKVVVISAILALVVLTIISLIILIMLWQKKPRYEIRWKVIESVSCPAPRAEAEDSFL [PDGFβR, unrelated platelet-derived growth factor β receptor TM domain protein construct]”, the “inhibition of EPO-induced proliferation (in words)” value in the series on mEpoR is listed as “did not show inhibited proliferation”.
Consider “mEpoR-TM2 (isotope-labeled mEpoR TM domain fragment) (peptide)”, for which, in series [1], the stoichiometry N was found to be 2.
Turning to “MDHLGASLWPQVGSLCLLLAGAAWPVTFIIATVVGVLLFLILVVVVGILGGSGGGGSGGRDHMVLHEYVNAAGIT [ErbB2 TM domain fusion, ErbB2 TM domain construct fused to GFP11 at its c-terminus]”, in the series with mEpoR−GFP1-10, the “fluorescence in mEpoR−GFP1-10 expressing cells (in words)” value was “fluorescence was not increased”. In the series on ErbB2−GFP1-10, the “complementation of ErbB2−GFP1-10” value is “could complement ErbB2−GFP1-10”.

B1: mEpoR: mouse erythropoietin receptor (target); TM domain (protein)
chain: APSPSLPDPKFESKAALLASRGSEELLCFTQRLEDLVCFWEEAASSGMDFNYSFSYQLEGESRKSCSLHQAPTVRGSVRFWCSLPTADTSSFVPLELQVTEASGSPRYHRIIHINEVVLLDAPAGLLARRAEEGSHVVLRWLPPPGAPMTTHIRYEVDVSAGNRAGGTQRVEVLEGRTECVLSNLRGGTRYTFAVRARMAEPSFSGFWSAWSEPASLLTASDLDPLILTLSLILVLISLLLTVLALLSHRRTLQQKIWPGIPSPESEFEGLFTTHKGNFQLWLLQRDGCLWWSPGSSFPEDPPAHLEVLSEPRWAVTQAGDPGADDEGPLLEPVGSEHAQDTYLVLDKWLLPRTPCSENLSGPGGSVDPVTMDEASETSSCPSDLASKPRPEGTSPSSFEYTILDPSSQLLCPRALPPELPPTPPHLKYLYLVVSDSGISTDYSSGGSQGVHGDSSDGPYSHPYENSLVPDSEPLHPGYVACS
modifications: left off: HA, end not stated, kept
notes: mouse erythropoietin receptor (target); TM domain
As to B1, the “homodimerization of mEpoR TM domains” value with mEpoR TM domain was “only weakly homodimerize”.

B2: mEpoR−GFP1-10 fusion protein (domain or fragment)
chain: APSPSLPDPKFESKAALLASRGSEELLCFTQRLEDLVCFWEEAASSGMDFNYSFSYQLEGESRKSCSLHQAPTVRGSVRFWCSLPTADTSSFVPLELQVTEASGSPRYHRIIHINEVVLLDAPAGLLARRAEEGSHVVLRWLPPPGAPMTTHIRYEVDVSAGNRAGGTQRVEVLEGRTECVLSNLRGGTRYTFAVRARMAEPSFSGFWSAWSEPASLLTASDLDPLILTLSLI
Consider B2, for which the fold MFI over cells expressing mEpoR−GFP1-10 alone or the CHAMP-1 fusion alone in series [2] was more than 4 fold.

The term stoichiometry N denotes a count of units in the complex or per binding partner.

The values above are taken from paper PMC11142920, “De novo-designed transmembrane proteins bind and regulate a cytokine receptor” (Nature Chemical Biology, 2024).
